# Assay results published in ChEMBL document CHEMBL3046007, “Isonicotinic acid hydrazide derivatives: synthesis, antimicrobial activity, and QSAR studies” (Med Chem Res, 2012).
# How the values were obtained:
# Aspergillus niger = assay: Antimicrobial activity against Aspergillus niger after 7 days by serial dilution method; format: functional
# Candida albicans = assay: Antimicrobial activity against Candida albicans after 48 hr by serial dilution method; format: functional
# Escherichia coli = assay: Antimicrobial activity against Escherichia coli after 24 hr by serial dilution method; format: functional
# Staphylococcus aureus = assay: Antimicrobial activity against Staphylococcus aureus after 24 hr by serial dilution method; format: functional
# Bacillus subtilis = assay: Antimicrobial activity against Bacillus subtilis after 24 hr by serial dilution method; format: functional
# [1] = Cytotoxicity against Chlorocebus aethiops (African green monkey) Vero cells assessed as alteration in cell morphology; format: cell-based; conditions: chlorocebus sabaeus
# Punta Toro virus = assay: Antiviral activity against Punta Toro virus infected Vero cells assessed as inhibition of virus-induced cytopathicity; format: functional, organism-based
# Coxsackievirus B4 [2] = assay: Antiviral activity against Human coxsackievirus B4 infected Vero cells assessed as inhibition of virus-induced cytopathicity; format: functional, organism-based; conditions: Enterovirus B
# Sindbis virus = assay: Antiviral activity against Sindbis virus infected Vero cells assessed as inhibition of virus-induced cytopathicity; format: functional, organism-based
# [3] = tested on: Mammalian orthoreovirus 1; assay: Antiviral activity against Mammalian orthoreovirus 1 infected Vero cells assessed as inhibition of virus-induced cytopathicity; format: functional, organism-based; conditions: Mammalian orthoreovirus 1, Vero
# Human respirovirus 3 = assay: Antiviral activity against Human parainfluenza virus 3 infected Vero cells assessed as inhibition of virus-induced cytopathicity; format: functional, organism-based; conditions: Human respirovirus 3, Vero
# [4] = tested on: Respiratory syncytial virus; assay: Antiviral activity against Respiratory syncytial virus infected human HeLa cells assessed as inhibition of virus-induced cytopathicity; format: functional, organism-based
# Coxsackievirus B4 [5] = assay: Antiviral activity against Human coxsackievirus B4 infected human HeLa cells assessed as inhibition of virus-induced cytopathicity; format: functional, organism-based; conditions: Enterovirus B
# [6] = tested on: Vesicular stomatitis virus; assay: Antiviral activity against Vesicular stomatitis virus infected human HeLa cells assessed as inhibition of virus-induced cytopathicity; format: functional, organism-based
# [7] = Cytotoxicity against Homo sapiens (human) HeLa cells; format: cell-based
# [8] = Cytotoxicity against Homo sapiens (human) HEL cells; format: cell-based
# Human alphaherpesvirus 1 [9] = assay: Antiviral activity against TK(-) aciclovir-resistant Human herpesvirus 1 strain KOS infected in human HEL cells assessed as inhibition of virus-induced cytopathicity; format: functional, organism-based; conditions: Human alphaherpesvirus 1, KOS
# Vaccinia virus = assay: Antiviral activity against Vaccinia virus infected human HEL cells assessed as inhibition of virus-induced cytopathicity; format: functional, organism-based; conditions: Orthopoxvirus vaccinia
# Human alphaherpesvirus 2 = assay: Antiviral activity against Human herpesvirus 2 strain G infected human HEL cells assessed as inhibition of virus-induced cytopathicity; format: functional, organism-based; conditions: Human alphaherpesvirus 2, strain G
# Human alphaherpesvirus 1 [10] = assay: Antiviral activity against Human herpesvirus 1 strain KOS infected in human HEL cells assessed as inhibition of virus-induced cytopathicity; format: functional, organism-based; conditions: Human alphaherpesvirus 1, KOS
# [11] = Cytotoxicity against Homo sapiens (human) MT4 cells; format: cell-based
# [12] = tested on: Human immunodeficiency virus 2; assay: Antiviral activity against Human immunodeficiency virus type 2 (ISOLATE ROD) infected human MT4 cells assessed as inhibition of virus-induced cytopathicity; format: functional, organism-based; conditions: Human immunodeficiency virus 2, ISOLATE ROD
# [13] = tested on: Human immunodeficiency virus 1; assay: Antiviral activity against Human immunodeficiency virus 1 IIIB infected human MT4 cells assessed as inhibition of virus-induced cytopathicity; format: functional, organism-based
Compound,-logMIC (Aspergillus niger),-logMIC (Candida albicans),-logMIC (Escherichia coli),-logMIC (Staphylococcus aureus),-logMIC (Bacillus subtilis),MCC [1] [µg/mL],EC50 (Punta Toro virus) [µg/mL],EC50 (Coxsackievirus B4 [2]) [µg/mL],EC50 (Sindbis virus) [µg/mL],EC50 [3] [µg/mL],EC50 (Human respirovirus 3) [µg/mL],EC50 [4] [µg/mL],EC50 (Coxsackievirus B4 [5]) [µg/mL],EC50 [6] [µg/mL],MCC [7] [µg/mL],MCC [8] [µg/mL],EC50 (Human alphaherpesvirus 1 [9]) [µg/mL],CC50 [11] [µg/mL],EC50 [12] [µg/mL],EC50 [13] [µg/mL],further results
O=C(N/N=C/c1c[nH]c2ccccc12)c1ccncc1,2.32,2.63,2.02,2.02,2.02,> 100,> 100,45,> 100,2.4,> 100,> 100,> 100,> 100,≥ 100,> 100,> 100,95,> 95,> 95,EC50 (Vaccinia virus): > 100 µg/mL; EC50 (Human alphaherpesvirus 2): > 100 µg/mL; EC50 (Human alphaherpesvirus 1 [10]): > 100 µg/mL
COc1cccc(OC)c1/C=N/NC(=O)c1ccncc1,2.36,2.36,2.06,2.06,2.06,100,> 20,> 20,> 20,> 20,> 20,> 20,> 20,> 20,100,> 100,> 100,9,> 9,> 9,EC50 (Vaccinia virus): > 100 µg/mL; EC50 (Human alphaherpesvirus 2): > 100 µg/mL; EC50 (Human alphaherpesvirus 1 [10]): > 100 µg/mL
CSc1ccc(/C=N/NC(=O)c2ccncc2)cc1,2.34,2.34,2.34,2.04,2.04,≥ 100,> 100,9,> 100,> 100,> 100,> 20,> 20,> 20,100,> 100,> 100,59,> 59,> 59,EC50 (Vaccinia virus): > 100 µg/mL; EC50 (Human alphaherpesvirus 2): > 100 µg/mL; EC50 (Human alphaherpesvirus 1 [10]): > 100 µg/mL
COc1cccc(OC)c1/C=N/N(C(=O)c1ccccc1)C(=O)c1ccncc1,2.49,3.1,2.49,2.49,2.49,100,> 20,> 20,> 20,> 20,> 20,> 4,> 4,> 4,20,> 100,> 100,12,> 12,> 12,EC50 (Vaccinia virus): > 100 µg/mL; EC50 (Human alphaherpesvirus 2): > 100 µg/mL; EC50 (Human alphaherpesvirus 1 [10]): > 100 µg/mL
O=C(c1ccccc1)N(/N=C/c1ccccc1O)C(=O)c1ccncc1,2.44,3.04,2.44,1.84,2.44,–,–,–,–,–,–,–,–,–,–,–,–,–,–,–,–
COc1cc(/C=N/NC(=O)c2ccncc2)cc(OC)c1OC,2.4,2.4,2.1,2.1,2.4,> 100,> 100,> 100,> 100,> 100,> 100,> 100,> 100,> 100,≥ 100,> 100,> 100,110,> 110,> 110,EC50 (Vaccinia virus): > 100 µg/mL; EC50 (Human alphaherpesvirus 2): > 100 µg/mL; EC50 (Human alphaherpesvirus 1 [10]): > 100 µg/mL
Cc1ccc(/C=N/NC(=O)c2ccncc2)cc1 [N'-(4-METHYLBENZYLIDENE)ISONICOTINOHYDRAZIDE],2.28,2.28,1.98,1.98,1.98,≥ 20,> 20,> 20,> 20,> 20,> 20,> 20,9,> 20,100,> 100,> 100,25,> 25,> 25,EC50 (Vaccinia virus): > 100 µg/mL; EC50 (Human alphaherpesvirus 2): > 100 µg/mL; EC50 (Human alphaherpesvirus 1 [10]): > 100 µg/mL
CCOc1cc(/C=N/N(C(=O)c2ccccc2)C(=O)c2ccncc2)ccc1O,2.19,2.79,2.49,2.19,2.19,> 100,> 100,> 100,> 100,> 100,> 100,> 100,> 100,> 100,> 100,> 100,> 100,≥ 92,> 92,> 92,EC50 (Vaccinia virus): > 100 µg/mL; EC50 (Human alphaherpesvirus 2): > 100 µg/mL; EC50 (Human alphaherpesvirus 1 [10]): > 100 µg/mL
CC(Cl)C(=O)NNC(=O)c1ccncc1 (configuration not stated),2.26,2.26,2.26,2.26,1.96,–,–,–,–,–,–,–,–,–,–,–,–,77.5,> 77.5,> 77.5,–
O=C(NNC(=O)c1cc([N+](=O)[O-])ccc1Cl)c1ccncc1,2.41,2.41,2.11,2.11,2.11,–,–,–,–,–,–,–,–,–,–,–,–,116,> 116,> 116,–
